Reference: EPA's ToxValDB 9.5 (doi:10.2903/j.efsa.2010.1913)

Assays:
[1] = tested on: Aphidius rhopalosiphi; experiment: LR50; higher = less toxic; conditions: not reported; mortality
[2] = tested on: Oncorhynchus mykiss
[3] = tested on: Apis mellifera; conditions: acute; oral; unspecified; mortality
[4] = tested on: Mus musculus; conditions: oral
[5] = tested on: Rattus norvegicus
[6] = tested on: Canidae; conditions: oral, Dog Other, organ weight
[7] = tested on: Colinus virginianus; conditions: acute; oral; mortality
[8] = tested on: Daphnia magna; conditions: chronic/long-term; duration: 21 days; reproduction
[9] = tested on: Tagia sp.; conditions: acute; duration: 14 days; mortality
[10] = tested on: Cyprinus carpio; conditions: acute; duration: 96 hours; mortality
[11] = tested on: Coturnix japonica
[12] = reproduction developmental, reproduction

`CCNC(=O)[C@@H](C)OC(=O)Nc1ccccc1` [Carbetamide] showed an LR50 [1] of over 3020 g/ha, an LC50 ([2]; acute, duration: 96 hours, mortality) of over 100 µg/mL and an NOEC ([2]; chronic/long-term, duration: 21 days, growth) of over 100 mg/L. For the same compound, the LD50 [3] was over 63.2 µg/piece, the LD50 ([4]; acute, mortality) was 1720 mg/kg-day and the NOEL ([4]; chronic, duration: 104 weeks, histopathology: neoplastic) was 21 mg/kg-day. It also gave an LD50 ([5]; acute, oral, mortality) of over 2000 mg/kg-day, an NOAEL ([5]; chronic, duration: 2 years, oral, histopathology: nonneoplastic) of 6 mg/kg-day and an NOAEL [5, 12] of 208 mg/kg-day. The NOAEL ([5]; subchronic, duration: 90 days, oral, histopathology: nonneoplastic) was 12.5 mg/kg-day, the NOAEL ([6]; chronic, duration: 1 years) was 30 mg/kg-day and the NOAEL ([6]; subchronic, duration: 90 days) was 30 mg/kg-day. It also gave an LD50 [7] of over 2000 mg/kg-day, an NOEC [8] of 1 mg/L and an LC50 [9] of 660 mg/kg. The LC50 [10] was over 100 µg/mL, the LC50 ([11]; acute, oral, diet, mortality) was over 1040 mg/kg-day and the NOEC [11, 12] was 169 mg/kg-day.
